From US20220257580A1, “TREATMENT OF C3 GLOMERULOPATHY USING A C5A INHIBITOR” (CHEMOCENTRYX, INC., priority 2020, published 2022)
“Also recorded” adds a separate entry of the source.

Tests used:
Format in all cases: in vivo, human
[1] = tested on: patient with progressive complement 3 (C3) glomerulonephritis (recurrent C3GN in a renal transplant); assay: Special Needs program study of compound 1 in one patient: eGFR and proteinuria; conditions: for eGFR decline / eGFR: eGFR 83 mL/min/1.73 m^2 14 months prior, 46 at start of treatment
Text: Under the Special Needs program in the United Kingdom (which is similar to a compassionate use protocol in the US), a C3 glomerulonephritis patient received treatment with the orally administered complement inhibitor compound 1, following the protocol detailed below. The patient had refractory disease despite a kidney transplant and prior treatment with the broadly immunosuppressive drugs rituximab, cyclophosphamide, mycophenolate mofetil, tacrolimus, and steroids. Renal allograft biopsies were taken pre-dose, 2 and 7 months during therapy. The primary efficacy objective is to evaluate the efficacy of compound 1 based on change from baseline in eGFR (MDRD, Estimated Glomerular Filtration Rate) and proteinuria. This is a clinical study to test the safety, tolerability, and efficacy of compound 1 in a patient with recurrent […] in a renal transplant. The patient will have biopsy proven recurrent […] prior to start of dosing, and be deemed eligible based on the inclusion and exclusion criteria. Screening procedures will include recording of demographics, medical history, medication history, physical examination and vital signs, serum chemistry, hematology, urinalysis (including UPCR measurement), viral screening (if not performed within prior 12 weeks), and estimated glomerular filtration rate (eGFR) assessment based on serum creatinine. The baseline eGFR needs to be at least 25 mL/min/1.73 m^2 for study eligibility. On Day 1, the patient will start compound 1 treatment. Patients will take compound 1 30 mg orally twice daily for an initial period of 84 days. The patient will visit the study center on Days 1, 8, 15, 29, 57, and 85. The compound 1 dose will be taken in the morning optimally within one hour after breakfast and in the evening optimally within one hour after dinner. If the patient's clinical condition stabilizes or improves, and there are no adverse events preventing further treatment, the patient may be treated for another 84-day treatment cycle. The 84-day cycles may be repeated for a total of up to 4 cycles under this protocol. For the 84-day cycles after the first cycle, the patient will visit the study center every 4 weeks. There will be 4-week follow-up period after the patient stops the compound 1 treatment. Efficacy assessments include: • 1. First morning urinary PCR or ACR; • 2. eGFR by Modification of Diet in Renal Disease (MDRD) formula based on serum creatinine; • 3. Plasma and urine pharmacodynamic markers, e.g., MCP-1, C3a, C5a, properdin, and sC5b-9; • 4. Glomerular inflammation (e.g., crescents, inflammatory cell infiltrate, endocapillary proliferation) and C3 deposition in a follow-up renal biopsy sample;

[2] = tested on: patient with progressive complement 3 (C3) glomerulonephritis (recurrent C3GN in a renal transplant); assay: Special Needs program study of compound 1 in one patient: renal allograft biopsy histology; conditions: for Endocapillary hypercellularity/total: pre-treatment 3/11; for CD68-positive cells/glomerulus: pre-treatment 11; for Immunoflourescence microscopy, IgM: pre-treatment trace
Text: Under the Special Needs program in the United Kingdom (which is similar to a compassionate use protocol in the US), a C3 glomerulonephritis patient received treatment with the orally administered complement inhibitor compound 1, following the protocol detailed below. The patient had refractory disease despite a kidney transplant and prior treatment with the broadly immunosuppressive drugs rituximab, cyclophosphamide, mycophenolate mofetil, tacrolimus, and steroids. Renal allograft biopsies were taken pre-dose, 2 and 7 months during therapy. At the Day 1 and post-Day 1 study visits, blood and urine samples will be collected for safety, efficacy, and pharmacokinetic measurements. Physical examinations and vital signs assessments will be performed throughout the study. Concomitant medication and adverse event assessments will be made at every study visit. If at all possible, a renal biopsy will be performed after an appropriate follow-up period to assess the changes in kidney histology. Efficacy assessments include: • 1. First morning urinary PCR or ACR; • 2. eGFR by Modification of Diet in Renal Disease (MDRD) formula based on serum creatinine; • 3. Plasma and urine pharmacodynamic markers, e.g., MCP-1, C3a, C5a, properdin, and sC5b-9; • 4. Glomerular inflammation (e.g., crescents, inflammatory cell infiltrate, endocapillary proliferation) and C3 deposition in a follow-up renal biopsy sample; Renal biopsies will be analyzed by periodic acid-Schiff (PAS) staining, immunofluorescence staining for C3, C5b-9, and potentially other markers. Electron microscopy may also be performed.

[3] = tested on: patients with C3 glomerulopathy; assay: Phase 2 placebo-controlled study (ACCOLADE): C3G Histologic Index from kidney biopsies
Procedure: The primary objective is to evaluate the efficacy of compound 1 compared to placebo based on histologic changes in C3G pathology from kidney biopsies taken before and during treatment. Patients will then be randomized, 1:1, to receive 30 mg compound 1 twice daily or matching placebo for 26 weeks in a double-blind, placebo-controlled manner. The 26-week double-blind period will be followed by a 26-week period during which all patients will receive compound 1 treatment. Efficacy assessments include: • 1. Renal histology to determine the C3G Histologic Index (CHI) for disease activity and chronicity; • 2. eGFR calculated by the Modification of Diet in Renal Disease (MDRD) equation from serum creatinine; • 3. First morning urinary PCR; • 4. First morning urinary MCP-1:creatinine ratio; • 5. EQ-5D-5L and SF-36 v2. All renal biopsies will also be analyzed based on hematoxylin-eosin (H&E) staining, periodic acid-Schiff (PAS) staining, trichrome, and Jones methenamine silver staining. These renal biopsies will be evaluated by a central reader, blinded to treatment assignment from either slides or high-resolution electronic images. The central reader will determine the degree of disease activity and chronicity. The primary efficacy endpoint is the percent change from baseline to week 26 in the C3G Histologic Index (CHI) for disease activity. The compound 1 and placebo groups will be compared by ANCOVA with treatment group and randomization strata (C3GN or DDD, and renal transplant or not) as factors, and baseline as covariate. Point estimates and corresponding 95% confidence intervals will be estimated for the difference between the compound 1 and placebo control group. Other efficacy endpoints include: • 1. The percent change from baseline in the CHI for disease chronicity over the placebo-controlled 26-week treatment period; • 2. The change and percent change from baseline in eGFR over the placebo-controlled 26-week treatment period; • 3. The percent change from baseline in urinary PCR over the placebo-controlled 26-week treatment period; • 4. The percent change from baseline in urinary MCP-1:creatinine ratio over the placebo-controlled 26-week treatment period; • 5. Change from baseline in EQ-5D-5L and SF-36 v2 (domains and component scores) over the placebo-controlled 26-week treatment period. The primary endpoint of the study was change from baseline to week 26 in the C3G Histologic Index for Disease Activity, comparing the changes in kidney histology from biopsy sections taken from patients characterized by elevated levels of C5b-9 complement markers in the blood at time of study entry (baseline).

[4] = tested on: patients with C3 glomerulopathy; assay: Phase 2 placebo-controlled study (ACCOLADE): eGFR, urinary PCR, urinary MCP-1:creatinine ratio
Text: The secondary objectives of this study include assessment of: • 1. The safety of compound 1 compared to placebo based on the incidence of adverse events, changes in clinical laboratory measurements, and vital signs; • 2. Changes in laboratory parameters of renal disease including estimated glomerular filtration rate (eGFR), proteinuria, and urinary excretion of monocyte chemoattractant protein-1 (MCP-1) with compound 1 compared to placebo; • 3. Health-related quality-of-life changes based on Short Form-36 version 2 (SF-36 v2) and EuroQOL-5D-5L (EQ-5D-5L) with compound 1 compared to placebo; • 4. Evaluation of the pharmacokinetic profile of compound 1 in patients with C3 glomerulopathy. Patients will then be randomized, 1:1, to receive 30 mg compound 1 twice daily or matching placebo for 26 weeks in a double-blind, placebo-controlled manner. The 26-week double-blind period will be followed by a 26-week period during which all patients will receive compound 1 treatment. Efficacy assessments include: • 1. Renal histology to determine the C3G Histologic Index (CHI) for disease activity and chronicity; • 2. eGFR calculated by the Modification of Diet in Renal Disease (MDRD) equation from serum creatinine; • 3. First morning urinary PCR; • 4. First morning urinary MCP-1:creatinine ratio; • 5. EQ-5D-5L and SF-36 v2. Other efficacy endpoints include: • 1. The percent change from baseline in the CHI for disease chronicity over the placebo-controlled 26-week treatment period; • 2. The change and percent change from baseline in eGFR over the placebo-controlled 26-week treatment period; • 3. The percent change from baseline in urinary PCR over the placebo-controlled 26-week treatment period; • 4. The percent change from baseline in urinary MCP-1:creatinine ratio over the placebo-controlled 26-week treatment period; • 5. Change from baseline in EQ-5D-5L and SF-36 v2 (domains and component scores) over the placebo-controlled 26-week treatment period. Continuous variables, including eGFR, urinary PCR, urinary MCP-1:creatinine ratio, EQ-5D-5L, and SF-36 v2 will be analyzed using a mixed effects model for repeated measures ([…]) with treatment group, visit, treatment-by-visit interaction, and randomization strata (C3GN or DDD, and renal transplant or not) as factors, and baseline as covariate. Patients will be considered as repeated measure units over visits. Point estimates and corresponding 95% confidence intervals will be estimated for the difference between the compound 1 group and the control group across 26 weeks using simple contrast from the model. Similar to the primary endpoint, the second 26 weeks will be compared to the first 26 weeks for the placebo group.

[5] = tested on: patients with C3 glomerulopathy; assay: Phase 2 placebo-controlled study (ACCOLADE): safety and tolerability; conditions: patients with C3G
Text: The secondary objectives of this study include assessment of: • 1. The safety of compound 1 compared to placebo based on the incidence of adverse events, changes in clinical laboratory measurements, and vital signs; • 2. Changes in laboratory parameters of renal disease including estimated glomerular filtration rate (eGFR), proteinuria, and urinary excretion of monocyte chemoattractant protein-1 (MCP-1) with compound 1 compared to placebo; • 3. Health-related quality-of-life changes based on Short Form-36 version 2 (SF-36 v2) and EuroQOL-5D-5L (EQ-5D-5L) with compound 1 compared to placebo; • 4. Evaluation of the pharmacokinetic profile of compound 1 in patients with C3 glomerulopathy.
Safety assessments include adverse events, physical examination abnormalities, vital signs, and clinical laboratory tests (including blood chemistry, hematology, and urinalysis).
Safety endpoints include: • 1. Patient incidence of treatment-emergent serious adverse events, adverse events, and withdrawals due to adverse events; • 2. Change from baseline and shifts from baseline in all safety laboratory parameters; • 3. Change from baseline in vital signs.

Cc1ccc(NC(=O)[C@H]2CCCN(C(=O)c3c(C)cccc3F)[C@H]2c2ccc(NC3CCCC3)cc2)cc1C(F)(F)F [Compound 1, avacopan]
eGFR decline ([1]; after 1 month of treatment): attenuated | Proteinuria drop ([1]; single C3GN patient, compound 1 30 mg orally twice daily): approximately 80% | eGFR decline / eGFR ([1]; single C3GN patient): stabilized eGFR | eGFR decline / eGFR ([1]; single C3GN patient, listed as compound 1): attenuated or stopped | Endocapillary hypercellularity/total ([2]; 2 months of therapy): 0/36 | CD68-positive cells/glomerulus ([2]; 2 months of therapy): 2-3 | Immunoflourescence microscopy, IgM ([2]; 2 months of therapy): neg | Endocapillary hypercellularity/total ([2]; 7 months of therapy): 0/14 | CD68-positive cells/glomerulus ([2]; 7 months of therapy): 1-2 | Immunoflourescence microscopy, IgM ([2]; 7 months of therapy): neg | glomerular inflammation ([2]; on-treatment biopsy compared to pre-treatment): reduced glomerular inflammation | glomerular endocapillary proliferation / hypercellularity ([2]; on-treatment kidney biopsy compared to pre-treatment biopsy): clearance of glomerular endocapillary proliferation; also recorded: resolution of glomerular endocapillary hypercellularity; also recorded: reduction in endocapillary hypercellularity | glomerular inflammatory macrophages ([2]; on-treatment kidney biopsy compared to pre-treatment biopsy, CD68 staining): marked decrease; also recorded: reduction in glomerular macrophages | C3G Index for Disease Chronicity, higher change in placebo group than avacopan ([3]; baseline to Week 26): 26 percentage point | C3G Histologic Index for Disease Chronicity, change from baseline ([3]; baseline to Week 26, increase = worsening, placebo 58%): 32% | C3G Histologic Index for Disease Activity (C3G Activity Score), improvement on average ([3]; baseline to week 26, all C3G subjects (elevated and normal C5b-9), placebo worsened by 26%): 6% | C3G Activity Score, average difference between the two treatment arms ([3]; baseline to week 26, elevated C5b-9 patients, avacopan vs placebo, not statistically significant): approximately 40% | C3G Histologic Index for Disease Activity (C3G Activity Score), improvement on average ([3]; baseline to week 26, patients with elevated C5b-9 at baseline, placebo worsened by 38%): 2% | C3G Histologic Index for Disease Chronicity, mean change from baseline ([3]; baseline to week 26, placebo 1.6, P<0.05): 0.8 | Urinary MCP-1:Creatinine Ratio Percent Change from Baseline ([4]; 26-week treatment period, placebo 1%): −12% | Urinary Protein:Creatinine Ratio (Proteinuria) Percent Change from Baseline ([4]; 26-week treatment period, placebo −14%): −26% | eGFR improvement from baseline ([4]; 26 weeks, subjects with eGFR <60 mL/min/1.73 m^2 at baseline, placebo 6% worsening, P=0.0199): 13% | eGFR mean increase ([4]; 26 weeks, subjects with eGFR <60 mL/min/1.73 m^2 at baseline, placebo decrease of 1.4): about 5 mL/min/1.73 m^2 | eGFR average increase relative to placebo ([4]; after 26 weeks, subjects with eGFR <60 mL/min/1.73 m^2 at baseline): ~20% | eGFR improvement on average from baseline ([4]; baseline to week 26, overall, placebo worsened by 6%, P=0.0221): 5% | UPCR (proteinuria) reduction from baseline ([4]; end of 26 weeks, placebo 14%): 26% | urinary MCP-1 creatinine ratio versus the placebo group ([4]; throughout the 26-week treatment period): consistently exhibiting lower levels | UPCR (proteinuria) mean decrease from baseline ([4]; week 16, placebo 1% decrease, P<0.05): 35% | safety and tolerability [5]: safe and well-tolerated
